Laboratory results published in PubChem BioAssay AID449750 (Broad Institute, 2010).
Where “and” joins values, the source holds several entries; their conditions need not be identical. Identical values can stand only once. Calls of active or inactive are those of the source. How the calls were made is not given here.

Assay: non-covalent RecA intein splicing inhibitors, dose response, biochemical, cell-free, fluorescence, secondary screen (AID 449750)

Row | SMILES | AC50
1 | CCOC(=O)C1=C(c2ccccc2)NC(N)=NC1c1ccc(OCc2ccc(Cl)cc2)c(OC)c1 (centres undefined) | 10.2 µM
2 | O=C(Oc1ccc(N(C(=O)c2ccncc2)S(=O)(=O)c2ccc(Cl)cc2)cc1)c1ccncc1 | > 38 µM (inactive)
3 | CCc1ccc(S(=O)(=O)Nc2cc(SCC(=O)O)c(O)c3ccccc23)cc1 | 3.06 µM
4 | O=C(Cc1cc(=O)[nH][nH]1)N/N=C/C(Cl)=C/c1ccccc1 | 19.8 µM and 11.1 µM
5 | Nc1ccc2ncccc2c1 | 15.5 µM
6 | COc1ccc(NC(=O)c2cccc(N3C(=O)C4C5C=CC(C5)C4C3=O)c2)cc1Cl (centres undefined) | > 38 µM (inactive)
7 | COc1ccc(OC)c(C(c2c(C)[nH][nH]c2=O)c2c(C)[nH][nH]c2=O)c1 | 13.5 µM
8 | CCCCc1ccc(NC(=O)CSCc2cc(=O)[nH][nH]2)cc1 | 27.1 µM
9 | CCCCCCCCCCOC(=O)Cn1c(COc2cccc(C)c2)[n+](C)c2ccccc21 | 7.35 µM
10 | COc1ccc(N(C(=O)CCl)C(C(=O)NCCc2ccccc2)c2cccs2)cc1 (centres undefined) | 0.958 µM
11 | CCN(C(=O)CSc1ncccc1C(=O)Oc1cccc([N+](=O)[O-])c1)c1cccc(C)c1 | > 38 µM (inactive)
12 | O=S(=O)(c1ccc(Cl)cc1)c1snnc1-c1ccccc1 | > 38 µM (inactive)
13 | C/C(CC(=O)Nc1ccccn1)=N\NC(=O)c1cccc(C)c1 | > 38 µM (inactive)
14 | CSc1nc(-c2ccc(Cl)cc2)nn1C(=O)c1ccco1 | > 38 µM (inactive)
15 | CNC(=O)/C(C#N)=C/c1c(N(Cc2ccccc2)Cc2ccccc2)nc2c(C)cccn2c1=O | 13 µM
16 | Cc1[nH]nc2c1C(c1ccsc1C)C(C#N)=C(N)O2 (centres undefined) | > 38 µM (inactive)
17 | CCCCOc1ccc(C(=O)C(CN2CCOCC2)c2ccccc2)cc1 (centres undefined) | 7.35 µM
18 | Nc1ccc2nc(Cc3ccccc3)[nH]c2c1 | > 38 µM (inactive)
19 | C=CCOc1ccccc1CN(C(=O)CCl)c1ccc2c(c1)OCO2 | 1.28 µM
20 | COC(=O)c1nc(NC(=O)c2ccc(C(C)(C)C)cc2)n[nH]1 | > 38 µM (inactive)
21 | C=C(C)CNC(=S)N=Nc1c(O)[nH]c2ccc([N+](=O)[O-])cc12 | > 38 µM (inactive)
22 | CCOc1cc(/C=C2\C(=O)N(CCC#N)N=C2C)ccc1OCC(N)=O | 12.6 µM
23 | CN(Cc1ccc(Cl)s1)C(=O)CCl | 19.3 µM
24 | C/C(CC(=O)Nc1ccccc1[N+](=O)[O-])=N\NC(=O)COc1ccccc1C | > 38 µM (inactive)
25 | CCOC1=C/C(=C/c2c(N)n3oc(C)cc3nc2=O)C=CC1=O | > 38 µM (inactive)

Row | SMILES | AC50
26 | CCCCCc1cc(=O)oc2c(C(CCN3CCCC(C)C3)c3ccc(N(C)C)cc3)c(OC)cc(OC)c12 (centres undefined) | > 38 µM (inactive)
27 | CC(/C=N/NC(=O)Cc1cc(=O)[nH][nH]1)=C\c1ccccc1 | 27 µM
28 | Cc1[nH]nc2c1C(c1ccc(-c3ccc(Cl)cc3)o1)C(C#N)=C(N)O2 (centres undefined) | 39.1 µM
29 | COC(=O)C1=C(C)NC(=S)NC1c1ccc(OC(=O)c2ccco2)cc1 (centres undefined) | > 38 µM (inactive)
30 | Cc1ccccc1-c1nc(CN(C)C(C)c2ccon2)c(C)o1 (centres undefined) | > 38 µM (inactive)
31 | COC(CNC(=O)c1ccc2c3c(onc13)-c1ccccc1C2=O)OC | > 38 µM (inactive)
32 | CC(=O)N(CCC(Cc1ccccc1)c1ccc2c(c1)OCO2)Cc1ccccc1F (centres undefined) | 3.99 µM
33 | [O-]C1=N/[N+](=C/c2ccc(Cl)c(Cl)c2)CC1 | > 38 µM (inactive)
34 | O=C(Oc1ccc(N2C(=O)C3C4CCC(C4)C3C2=O)cc1)c1ccco1 (centres undefined) | > 38 µM (inactive)
35 | Cc1ccc(S(=O)(=O)N(C(=O)c2ccncc2)c2ccc(OC(=O)c3ccncc3)c3ccccc23)c(C)c1 | 16.9 µM
36 | Cc1ccc(-n2nc(C)c3c2OC(N)=C(C#N)C3c2ccoc2)cc1 (centres undefined) | 6.18 µM
37 | Cc1[nH]nc2c1C(c1ccco1)C(C#N)=C(N)O2 (centres undefined) | > 38 µM (inactive)
38 | CCCCOP(=O)(OCCCC)C1(NS(=O)(=O)c2ccccc2)C=CC(=O)c2ccccc21 (centres undefined) | 9.07 µM
39 | Cc1cccc(OCC(=O)Oc2ccc(Cl)cc2)c1 | > 12 µM (inactive)
40 | Cc1c(N=C2C=CC(=O)c3ccccc32)c(=O)n(-c2ccccc2)n1C | 3.51 µM
41 | CC(C)(C)C1CCc2sc(C(=O)NNC(=O)CCl)cc2C1 (centres undefined) | 1.94 µM
42 | C/C(=N\NC(=O)c1ccncc1)c1cc2ccccc2oc1=O | > 38 µM (inactive)
43 | CCCCCCCCCCCCCCCC[N+](C)(C)CC | 10.9 µM
44 | CCNC1=C(Cl)C(=O)c2ccccc2C1=O | 22.3 µM
45 | COc1cccc(/C=C2\SC(=S)N(CCCC(=O)N(CCO)c3ccccc3)C2=O)c1 | > 38 µM (inactive)
46 | COc1ccc(Cc2nccc3cc(OC)c(OC)cc23)cc1OC | > 38 µM (inactive)
47 | Cc1cc(-c2[nH]nc3c2C(c2cccc(O)c2)C(C#N)=C(N)O3)c(C)s1 (centres undefined) | 28.8 µM
48 | O=c1[nH]c(/C=C/c2cccnc2)c([N+](=O)[O-])c(=O)[nH]1 | > 38 µM (inactive)
49 | O=C(CS(=O)c1ccc(C(F)(F)F)cc1[N+](=O)[O-])Oc1ccccc1 (centres undefined) | > 38 µM (inactive)
50 | CC1=NN(c2ccc(Cl)cc2)C(=O)C1 | 3.71 µM

Row | SMILES | AC50
51 | CC(C)c1ccc(S(=O)(=O)/N=C2\C=C(NS(=O)(=O)c3ccccc3)C(=O)c3ccccc32)cc1 | 6.05 µM
52 | CCCc1[nH][nH]c(=O)c1C(c1cccc(Cl)c1)C(C#N)C#N (centres undefined) | 9.32 µM
53 | COc1ccc(Nc2ccc(OC)cc2)cc1 | > 38 µM (inactive)
54 | CCc1ccc(S(=O)(=O)/N=C2\C=C(NS(=O)(=O)c3ccccc3)C(=O)c3ccccc32)cc1 | 4.45 µM
55 | CCOC(=O)c1nn(-c2ccc(OC)cc2)c(=O)c2c(N)scc12 | > 38 µM (inactive)
56 | CCCCCCCCCCC[N+](C)(C)CC/C=C1/c2ccccc2Sc2ccc(Cl)cc21 | 4.77 µM
57 | CC(=O)n1cc(N(C(=O)CCl)c2ccc([N+](=O)[O-])cc2)c2ccccc21 | 4.74 µM
58 | COc1cc(C2(c3ccc(O)c(OC)c3)C(=O)Nc3c(Br)cc(Br)cc32)ccc1O | 21.5 µM
59 | CCOC(=O)c1c(NC(=O)CCl)sc(CN(C)C)c1-c1ccccc1 | 20.4 µM
60 | CC(=O)Nc1cc(OC(=O)c2ccco2)cc(OC(=O)c2ccco2)c1 | 11.8 µM
61 | Oc1ccc(N=Cc2sc3ccccc3c2Cl)cc1 | > 38 µM (inactive)
62 | COc1cc(C2C(C#N)=C(N)Oc3c2c(-c2ccccc2)nn3-c2ccccc2)cc(OC)c1OC (centres undefined) | 29.9 µM
63 | COc1ccccc1/C=C1/C(=O)N(c2ccccc2)N=C1C | > 38 µM (inactive)
64 | COc1cc(C(c2c(C)[nH][nH]c2=O)c2c(C)[nH][nH]c2=O)cc([N+](=O)[O-])c1O | 10.7 µM
65 | CN(C(=O)c1cccc(COc2ccc(Cl)cc2Cl)c1)c1ccccc1 | > 38 µM (inactive)
66 | O=[N+]([O-])c1ccc2nc(Cl)nc(-c3ccccc3)c2c1 | > 38 µM (inactive)
67 | O=C(O)/C=C/C(=O)Nc1ccc(SC(F)(F)C(F)(F)C(F)(F)F)cc1 | 7.99 µM
68 | Cc1ccc(C)c(NC2=C(Cl)C(=O)OC2OC(=O)c2ccco2)c1 (centres undefined) | > 38 µM (inactive)
69 | CSc1nc(O)c(Nc2cccc(Cl)c2)c(=O)[nH]1 | > 38 µM (inactive)
70 | O=C1c2ccccc2C(=O)c2c1oc(C(F)(F)F)c2C(=O)c1ccccc1 | > 38 µM (inactive)
71 | CCOC(=O)C1=C(C)NC2(O)c3ccccc3C(=O)C12O (centres undefined) | 7.53 µM
72 | COc1ccc(N2C(=O)CSC23C(=O)N2c4c(cccc43)C(C)=CC2(C)C)cc1 (centres undefined) | 30.8 µM
73 | COC(=O)CSc1nc2sc3c(c2c(=O)n1C1CCCCC1)CCN(C)C3 | > 38 µM (inactive)
74 | COc1ccc(C(O)c2nccc3cc(OC)c(OC)cc23)cc1OC (centres undefined) | > 38 µM (inactive)
